{
  "source": "patent US20070128217A1",
  "about": "(priority 2003, published 2007)",
  "key": {"[1]": {"system": "antibodies in sera from SARS patients (sera 1a, 1b, 2, 6, 37, 62, London, SARS-yellow, SARS-green)", "type": "binding, human", "design": "Binding of serum 6 to linear peptides of protein X1 of SARS-CoV Urbani / Binding of serum 37 to linear peptides of protein X1 of SARS-CoV Urbani / Binding of serum 6 to looped/cyclic peptide (PEPSCAN-ELISA) / Binding of serum 37 to looped/cyclic peptide (PEPSCAN-ELISA) / Binding of serum 37 to looped/cyclic peptides of protein X1 of SARS-CoV Urbani / Binding of serum 6 to linear peptides of protein X2 / Binding of serum 37 to linear peptides of protein X2 / Binding of serum 37 to looped/cyclic peptides of protein X2 of SARS-CoV Urbani / Binding of serum 6 to linear peptides of protein M of SARS-CoV Urbani / Binding of serum 37 to linear peptides of protein M of SARS-CoV Urbani / Binding of serum 6 to looped/cyclic peptides of protein M of SARS-CoV Urbani / Binding of serum 37 to looped/cyclic peptides of protein M of SARS-CoV Urbani / Binding of serum 6 to linear peptides of protein X3 of SARS-CoV Urbani / Binding of serum 37 to linear peptides of protein X3 of SARS-CoV Urbani / Binding of serum 37 to looped/cyclic peptides of protein X3 of SARS-CoV Urbani / Binding of serum 6 to linear peptides of protein X4 of SARS-CoV Urbani / Binding of serum 37 to linear peptides of protein X4 of SARS-CoV Urbani / Binding of serum 37 to looped/cyclic peptides of protein X4 of SARS-CoV Urbani / Binding of serum 6 to linear peptides of protein X5 of SARS-CoV Urbani / Binding of serum 37 to linear peptides of protein X5 of SARS-CoV Urbani / Binding of serum 37 to looped/cyclic peptides of protein X5 of SARS-CoV Urbani / Binding of serum 6 to linear peptides of protein N of SARS-CoV Urbani / Binding of serum 37 to linear peptides of protein N of SARS-CoV Urbani / Binding of serum 6 to linear peptide (PEPSCAN-ELISA) / Binding of serum 1a to looped/cyclic peptides of protein N of SARS-CoV Urbani / Binding of serum 1b to looped/cyclic peptides of protein N of SARS-CoV Urbani / Binding of serum 2 to looped/cyclic peptides of protein N of SARS-CoV Urbani / Binding of serum 6 to looped/cyclic peptides of protein N of SARS-CoV Urbani / Binding of serum 37 to looped/cyclic peptides of protein N of SARS-CoV Urbani / Binding of serum 62 to looped/cyclic peptides of protein N of SARS-CoV Urbani / Binding of serum London to looped/cyclic peptides of protein N of SARS-CoV Urbani / Binding of serum SARS-green to looped/cyclic peptides of protein N of SARS-CoV Urbani: unit not given here"}, "[2]": {"system": "control sera (pooled serum of ten healthy LUMC hospital workers; commercial negative donor pooled serum from the Dutch bloodbank)", "type": "binding, human"}, "[3]": {"system": "rabbit serum obtained by immunizing a rabbit with the SARS-CoV strain Frankfurt 1", "type": "binding", "design": "Binding of a rabbit serum to linear peptides / Binding of a rabbit serum to looped peptides / Rabbit serum linear peptides / Rabbit serum looped peptides / Binding of a rabbit serum to linear peptides of protein N of SARS-CoV Urbani (Rabbit serum linear peptides) / Binding of a rabbit serum to looped/cyclic peptides of protein N of SARS-CoV Urbani (Rabbit serum looped peptides): unit not given here"}},
  "data": [
    {"sequence": "LQTLVLKMLHSSSLT", "values": [
      {"measurement": "Binding of serum 1a to linear peptides of protein X2", "setting": "[1]", "result": 0.7},
      {"measurement": "Binding of serum 1a to looped/cyclic peptides of protein X2 of SARS-CoV Urbani", "setting": "[1]", "result": 0.4},
      {"measurement": "Binding of serum 1b to linear peptides of protein X2", "setting": "[1]", "result": 0.5},
      {"measurement": "Binding of serum 1b to looped/cyclic peptides of protein X2 of SARS-CoV Urbani", "setting": "[1]", "result": 0.4},
      {"measurement": "Binding of serum 2 to linear peptides of protein X2", "setting": "[1]", "result": 0.5},
      {"measurement": "Binding of serum 2 to looped/cyclic peptides of protein X2 of SARS-CoV Urbani", "setting": "[1]", "result": 0.3},
      {"measurement": "Binding of serum 6 to linear peptides of protein X2", "setting": "[1]", "result": 0.4},
      {"measurement": "Binding of serum 6 to looped/cyclic peptides of protein X2 of SARS-CoV Urbani", "setting": "[1]", "result": 0.5},
      {"measurement": "Binding of serum 37 to linear peptides of protein X2", "setting": "[1]", "result": 0.6},
      {"measurement": "Binding of serum 37 to looped/cyclic peptides of protein X2 of SARS-CoV Urbani", "setting": "[1]", "result": 0.3},
      {"measurement": "Binding of serum 62 to linear peptides of protein X2", "setting": "[1]", "result": 0.6},
      {"measurement": "Binding of serum 62 to looped/cyclic peptides of protein X2 of SARS-CoV Urbani", "setting": "[1]", "result": 0.4},
      {"measurement": "Binding of serum London to linear peptides of protein X2", "setting": "[1]", "result": 0.4},
      {"measurement": "Binding of serum London to looped/cyclic peptides of protein X2 of SARS-CoV Urbani", "setting": "[1]", "result": 0.5},
      {"measurement": "Binding of serum SARS-green to linear peptides of protein X2", "setting": "[1]", "result": 0.5},
      {"measurement": "Binding of serum SARS-green to looped/cyclic peptides of protein X2 of SARS-CoV Urbani", "setting": "[1]", "result": 0.3},
      {"measurement": "Binding of serum SARS-yellow to linear peptides of protein X2", "setting": "[1]", "result": 0.7},
      {"measurement": "Binding of serum SARS-yellow to looped/cyclic peptides of protein X2 of SARS-CoV Urbani", "setting": "[1]", "result": 0.3},
      {"measurement": "Binding of Control Serum Blood-Bank to Looped peptides", "setting": "[2]", "result": 0.5},
      {"measurement": "Binding of Control serum Blood-bank to linear peptides", "setting": "[2]", "result": 0.7},
      {"measurement": "Binding of Control serum LUMC to linear peptides", "setting": "[2]", "result": 0.5},
      {"measurement": "Binding of Control serum LUMC to looped peptides", "setting": "[2]", "result": 0.5},
      {"measurement": "Binding of a rabbit serum to linear peptides", "setting": "[3]", "result": 0.3},
      {"measurement": "Binding of a rabbit serum to looped peptides", "setting": "[3]", "result": 0.3}
    ]},
    {"sequence": "LSLLKVTAFQHQNSK", "values": [
      {"measurement": "Binding of serum 1a to linear peptides of protein X2", "setting": "[1]", "result": 0.4},
      {"measurement": "Binding of serum 1a to looped/cyclic peptides of protein X2 of SARS-CoV Urbani", "setting": "[1]", "result": 0.3},
      {"measurement": "Binding of serum 1b to linear peptides of protein X2", "setting": "[1]", "result": 0.1},
      {"measurement": "Binding of serum 1b to looped/cyclic peptides of protein X2 of SARS-CoV Urbani", "setting": "[1]", "result": 0.2},
      {"measurement": "Binding of serum 2 to linear peptides of protein X2", "setting": "[1]", "result": 0.1},
      {"measurement": "Binding of serum 2 to looped/cyclic peptides of protein X2 of SARS-CoV Urbani", "setting": "[1]", "result": 0.1},
      {"measurement": "Binding of serum 6 to linear peptides of protein X2", "setting": "[1]", "result": 0.2},
      {"measurement": "Binding of serum 6 to looped/cyclic peptides of protein X2 of SARS-CoV Urbani", "setting": "[1]", "result": 0.1},
      {"measurement": "Binding of serum 37 to linear peptides of protein X2", "setting": "[1]", "result": 0.4},
      {"measurement": "Binding of serum 37 to looped/cyclic peptides of protein X2 of SARS-CoV Urbani", "setting": "[1]", "result": 0.2},
      {"measurement": "Binding of serum 62 to linear peptides of protein X2", "setting": "[1]", "result": 0.2},
      {"measurement": "Binding of serum 62 to looped/cyclic peptides of protein X2 of SARS-CoV Urbani", "setting": "[1]", "result": 0.3},
      {"measurement": "Binding of serum London to linear peptides of protein X2", "setting": "[1]", "result": 0.2},
      {"measurement": "Binding of serum London to looped/cyclic peptides of protein X2 of SARS-CoV Urbani", "setting": "[1]", "result": 0.1},
      {"measurement": "Binding of serum SARS-green to linear peptides of protein X2", "setting": "[1]", "result": 0.1},
      {"measurement": "Binding of serum SARS-green to looped/cyclic peptides of protein X2 of SARS-CoV Urbani", "setting": "[1]", "result": 0.1},
      {"measurement": "Binding of serum SARS-yellow to linear peptides of protein X2", "setting": "[1]", "result": 0.0},
      {"measurement": "Binding of serum SARS-yellow to looped/cyclic peptides of protein X2 of SARS-CoV Urbani", "setting": "[1]", "result": 0.2},
      {"measurement": "Binding of Control Serum Blood-Bank to Looped peptides", "setting": "[2]", "result": 0.4},
      {"measurement": "Binding of Control serum Blood-bank to linear peptides", "setting": "[2]", "result": 0.1},
      {"measurement": "Binding of Control serum LUMC to linear peptides", "setting": "[2]", "result": 0.4},
      {"measurement": "Binding of Control serum LUMC to looped peptides", "setting": "[2]", "result": 0.3},
      {"measurement": "Binding of a rabbit serum to linear peptides", "setting": "[3]", "result": 0.4},
      {"measurement": "Binding of a rabbit serum to looped peptides", "setting": "[3]", "result": 0.3}
    ]}
  ]
}
